Laboratory results reported in patent publication US20260070945A1, “MACROCYCLIC IMMUNOMODULATORS” (Bristol-Myers Squibb Company, priority 2022, published 2026).
Where a SMILES comes first, the peptide text is derived from it. Bridges are numbered along the chain shown (N, C = ends). [ ]: non-standard residue; d: D form. The star is where a group is joined. ξ: configuration not given here. Phe(4-CH2CH2COOH) = N[C@@H](Cc1ccc(CCC(=O)O)cc1)C(=O)O; Phe(4-COOH) = N[C@@H](Cc1ccc(C(=O)O)cc1)C(=O)O; Bip = N[C@@H](Cc1ccc(-c2ccccc2)cc1)C(=O)O; Phe(3-Me) = Cc1cccc(C[C@H](N)C(=O)O)c1; NH(CH2)12COOH = O=C(O)CCCCCCCCCCCCN*; Val(3-OH) = CC(C)(O)[C@H](N)C(=O)O; hArg = N=C(N)NCCCC[C@H](N)C(=O)O; Aad = N[C@@H](CCCC(=O)O)C(=O)O; Cha = N[C@@H](CC1CCCCC1)C(=O)O; Cit = NC(=O)NCCC[C@H](N)C(=O)O; Thr(3ξ) = CC(O)[C@H](N)C(=O)O; 12Ado = NCCCCCCCCCCCC(=O)O; Carboxymethyl = O=C(O)C*; NMeA = CN[C@@H](C)C(=O)O; Orn = NCCC[C@H](N)C(=O)O; Aun = NCCCCCCCCCCC(=O)O; Dab = NCC[C@H](N)C(=O)O; AEEA = NCCOCCOCC(=O)O

Molecular target: T1, PD-1/PD-L1 interaction (PE-labeled human PD-L1-Ig binding to Jurkat cell line over-expressing human PD-1) (Homo sapiens, UniProt Q15116)
T1 construct: expressed in transfected cells; host or cells: Jurkat
T1 sequence (Q15116 25-288): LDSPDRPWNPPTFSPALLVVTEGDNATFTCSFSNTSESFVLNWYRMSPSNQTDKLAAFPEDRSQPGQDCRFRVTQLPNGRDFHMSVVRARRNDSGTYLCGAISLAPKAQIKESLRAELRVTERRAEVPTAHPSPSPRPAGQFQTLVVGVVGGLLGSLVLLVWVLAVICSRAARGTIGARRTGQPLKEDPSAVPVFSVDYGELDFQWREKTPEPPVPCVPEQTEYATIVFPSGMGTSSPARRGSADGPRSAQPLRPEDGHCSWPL
Assay: Jurkat-PD-1 Cell Binding High-Content Screening Assay (CBA)
Conditions: Jurkat-hPD-1 cells, PE-labeled PD-L1-Ig 20 nM final; read-out: Jurkat HPD1 PDL1 IC50
In short: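 Jurkat cells overexpressing human PD-1 (8×10^3/well, DMEM + 10% FCS) preincubated with compound 2 h at 37 °C, then PE-labelled human PD-L1-Ig (20 nM final) for 1 h. Cells fixed in paraformaldehyde with Hoechst 33342; bound PD-L1 quantified by high-content imaging.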

SMILES | IC50 [nM]
Cc1cccc(C[C@@H]2NC(=O)[C@H](CC(=O)O)NC(=O)[C@H](Cc3ccc(OCC(=O)O)cc3)NC(=O)[C@H](CCCNC(=N)N)NC(=O)CSC[C@@H](C(=O)N[C@H](CC(N)=O)C(=O)NCCCCCCCCCCC(=O)O)NC(=O)[C@H](C(C)O)NC(=O)[C@H](C(C)C)NC(=O)[C@H](CC3CCCCC3)NC(=O)[C@H](CCN)NC(=O)[C@@H](CC(C)C)NC(=O)[C@H](C)N(C)C(=O)[C@H](CCCNC(N)=O)NC(=O)[C@H](Cc3ccc(-c4ccccc4)cc3)NC(=O)[C@H](C(C)C)NC2=O)c1 (stereo partly drawn) [Example 2312] ({CH2CO}-RY(Carboxymethyl)D[Phe(3-Me)]V[Bip][Cit][NMeA][dL][Dab][Cha]V[Thr(3ξ)]C[dN][Aun]-OH; thioether N-14) | 8.7
Cc1cccc(C[C@@H]2NC(=O)[C@H](CC(=O)O)NC(=O)[C@H](Cc3ccc(OCC(=O)O)cc3)NC(=O)[C@H]([C@@H](C)O)NC(=O)CSC[C@@H](C(=O)N[C@H](C)C(=O)NCCOCCOCC(=O)NCCCCCCCCCCC(=O)O)NC(=O)[C@H](CCC(=O)O)NC(=O)[C@H](C(C)(C)O)NC(=O)[C@H](CC3CCCCC3)NC(=O)[C@H](CCN)NC(=O)[C@@H](CC(C)C)NC(=O)[C@H](C)N(C)C(=O)[C@H](Cc3ccc(OCC(=O)O)cc3)NC(=O)[C@H](Cc3ccc(-c4ccccc4)cc3)NC(=O)[C@H](Cc3ccc(OCC(=O)O)cc3)NC2=O)c1 [Example 1417] ({CH2CO}-TY(Carboxymethyl)D[Phe(3-Me)]Y(Carboxymethyl)[Bip]Y(Carboxymethyl)[NMeA][dL][Dab][Cha][Val(3-OH)]EC[dA][AEEA][Aun]-OH; thioether N-14) | 379
Cc1cccc(C[C@@H]2NC(=O)[C@H](CC(=O)O)NC(=O)[C@H](Cc3ccc(CCC(=O)O)cc3)NC(=O)[C@H](CCCNC(=N)N)NC(=O)CSC[C@@H](C(=O)N[C@@H](CCN)C(=O)NCCCCCCCCCCC(=O)O)NC(=O)[C@@H](CO)NC(=O)[C@H](C(C)C)NC(=O)[C@H](CC3CCCCC3)NC(=O)[C@H](CCN)NC(=O)[C@@H](CC(C)C)NC(=O)[C@H](C)N(C)C(=O)[C@H](Cc3ccc(O)cc3)NC(=O)[C@H](Cc3ccc(-c4ccccc4)cc3)NC(=O)[C@H](C(C)C)NC2=O)c1 [Example 1267] ({CH2CO}-R[Phe(4-CH2CH2COOH)]D[Phe(3-Me)]V[Bip]Y[NMeA][dL][Dab][Cha]V[dS]C[Dab][Aun]-OH; thioether N-14) | 22.8
CC(=O)NCCCC[C@@H]1NC(=O)[C@H](Cc2ccc(-c3ccccc3)cc2)NC(=O)[C@H](Cc2ccc(O)cc2)NC(=O)[C@H](Cc2cccc(C)c2)NC(=O)[C@H](CC(=O)O)NC(=O)[C@H](Cc2ccc(OCC(=O)O)cc2)NC(=O)[C@H](Cc2ccc(OCC(=O)O)cc2)NC(=O)CSC[C@@H](C(=O)NCCCCCCCCCCC(=O)O)NC(=O)[C@H](C(C)O)NC(=O)[C@H](C(C)C)NC(=O)[C@H](CC2CCCCC2)NC(=O)[C@H](CCN)NC(=O)[C@@H](CC(C)C)NC(=O)[C@H](C)N(C)C1=O (stereo partly drawn) [Example 2379] ({CH2CO}-Y(Carboxymethyl)Y(Carboxymethyl)D[Phe(3-Me)]Y[Bip]K(Ac)[NMeA][dL][Dab][Cha]V[Thr(3ξ)]C[Aun]-OH; thioether N-14) | 38.9

Further lines, results first:

IC50 [nM] | SMILES
9.2 | Cc1cccc(C[C@@H]2NC(=O)[C@H](CC(=O)O)NC(=O)[C@H](Cc3c[nH]cn3)NC(=O)[C@H](Cc3ccc(OCC(=O)O)cc3)NC(=O)CSC[C@@H](C(=O)N[C@@H](CCN)C(=O)NCCCCCCCCCCC(=O)O)NC(=O)[C@H](CCCC(=O)O)NC(=O)[C@H](C(C)C)NC(=O)[C@H](CC3CCCCC3)NC(=O)[C@H](CCN)NC(=O)[C@@H](CC(C)C)NC(=O)[C@H](C)N(C)C(=O)[C@H](C(C)C)NC(=O)[C@H](Cc3ccc(-c4ccccc4)cc3)NC(=O)[C@H](C(C)C)NC2=O)c1 [Example 2215] ({CH2CO}-Y(Carboxymethyl)HD[Phe(3-Me)]V[Bip]V[NMeA][dL][Dab][Cha]V[Aad]C[Dab][Aun]-OH; thioether N-14)
7.8 | CC(C)C[C@@H]1NC(=O)[C@H](Cc2c[nH]c3ccccc23)NC(=O)[C@H](CC(=O)O)NC(=O)[C@H](Cc2ccc(C(=O)O)cc2)NC(=O)[C@H](Cc2ccc(OCC(=O)O)cc2)NC(=O)CSC[C@@H](C(=O)NCC(=O)NCCOCCOCC(=O)N[C@@H](CCCN)C(=O)NCCCCCCCCCCC(=O)O)NC(=O)[C@H](CCCN)NC(=O)[C@H](C(C)C)NC(=O)[C@H](CC2CCCCC2)NC(=O)[C@H](CCN)NC(=O)[C@@H](CC(C)C)NC(=O)[C@H](C)N(C)C(=O)[C@H](C(C)C)NC(=O)[C@H](Cc2ccc(-c3ccccc3)cc2)NC1=O [Example 2162] ({CH2CO}-Y(Carboxymethyl)[Phe(4-COOH)]DWL[Bip]V[NMeA][dL][Dab][Cha]V[Orn]CG[AEEA][Orn][Aun]-OH; thioether N-14)
16.7 | CC(C)C[C@@H]1NC(=O)[C@H](Cc2c[nH]c3ccccc23)NC(=O)[C@H](CC(=O)O)NC(=O)[C@H](Cc2ccc(C(=O)O)cc2)NC(=O)[C@H](Cc2ccc(OCC(=O)O)cc2)NC(=O)CSC[C@@H](C(=O)N[C@@H](CCCN)C(=O)NCCOCCOCC(=O)NCCCCCCCCCCC(=O)O)NC(=O)[C@H](CCCC(=O)O)NC(=O)[C@H](C(C)C)NC(=O)[C@H](CC2CCCCC2)NC(=O)[C@H](CCN)NC(=O)[C@@H](CC(C)C)NC(=O)[C@H](C)N(C)C(=O)[C@H](C(C)C)NC(=O)[C@H](Cc2ccc(-c3ccccc3)cc2)NC1=O [Example 2153] ({CH2CO}-Y(Carboxymethyl)[Phe(4-COOH)]DWL[Bip]V[NMeA][dL][Dab][Cha]V[Aad]C[Orn][AEEA][Aun]-OH; thioether N-14)
19.4 | CC(C)C[C@@H]1NC(=O)[C@H](Cc2c[nH]c3ccccc23)NC(=O)[C@H](CC(=O)O)NC(=O)[C@H](Cc2ccc(OCC(=O)O)cc2)NC(=O)[C@H](CCCCNC(=N)N)NC(=O)CSC[C@@H](C(=O)NCC(=O)N[C@@H](CCCN)C(=O)NCCCCCCCCCCCC(=O)O)NC(=O)[C@H](CO)NC(=O)[C@H](C(C)C)NC(=O)[C@H](CC2CCCCC2)NC(=O)[C@H](CCN)NC(=O)[C@@H](CC(C)C)NC(=O)[C@H](C)N(C)C(=O)[C@H](C(C)C)NC(=O)[C@H](Cc2ccc(-c3ccccc3)cc2)NC1=O [Example 2121] ({CH2CO}-[hArg]Y(Carboxymethyl)DWL[Bip]V[NMeA][dL][Dab][Cha]VSCG[Orn][12Ado]-OH; thioether N-14)

Same assay, conditions: PE-labeled PD-L1-Ig 20 nM final, Jurkat-hPD-1 cells; read-out: Jurkat HPD1 PDL1 IC50

IC50 [nM] | SMILES
74.4 | Cc1cccc(C[C@@H]2NC(=O)[C@H](CC(=O)O)NC(=O)[C@H](Cc3ccc(OCC(=O)O)cc3)NC(=O)[C@H](C)NC(=O)CSC[C@@H](C(=O)N[C@@H](CCN)C(=O)NCCCCCCCCCCCCC(=O)O)NC(=O)[C@H](Cc3cnc[nH]3)NC(=O)[C@H](C(C)(C)O)NC(=O)[C@H](CC3CCCCC3)NC(=O)[C@H](CCN)NC(=O)[C@@H](CC(C)C)NC(=O)[C@H](C)N(C)C(=O)[C@H](CCCNC(=N)N)NC(=O)[C@H](Cc3ccc(-c4ccccc4)cc3)NC(=O)[C@H](Cc3ccc(O)cc3)NC2=O)c1 [Example 2642] ({CH2CO}-AY(Carboxymethyl)D[Phe(3-Me)]Y[Bip]R[NMeA][dL][Dab][Cha][Val(3-OH)]HC[Dab]-{NH(CH2)12COOH}; thioether N-14)
